Several values for one entry are separate records, joined by “and”; a condition that tells them apart may be missing. Equal values may be shown once.
Key:
[1] = FIM dose escalation study: safety parameters (routine laboratory, blood pressure, body weight); settings: week 1 hour 71: 30 mg free NA (NA group) or 900 mg free NAM (NAM group) daily; individual subjects
Method: (§1) Ten healthy volunteers were included and allocated to 2 groups of 5 subjects each. One group received NA and the other group received NAM.
In this dose escalation study, subjects ingested the test items in the morning from Monday to Thursday of every week, followed by a three-day washout period from Friday to Sunday (Table 7). Before and until 30 min after administration (or until after the second blood sampling on Mondays), subjects fasted with water only. During week 1, the subjects took one daily dose of 30 mg unformulated NA or 900 mg unformulated NAM, respectively, to measure the maximum systemic exposure and peak serum levels according to nutritional tolerable upper intake levels or levels without anticipated side effects (Table 8).
In order to determine the intake of NA and NAM via the usual diet, a nutritional protocol was completed by the subjects from Mondays to Wednesdays. Blood samples were collected on Mondays and Thursdays (Table 7). On Mondays, the first blood sample was collected before ingestion of the capsules (“0 h” samples), and a second blood sample was taken after 2 hours (“2 h”), while subjects were still fasting. On Thursdays, blood samples were taken after administration of the capsules (“72 h”). Blood samples were subjected to routine laboratory analyses at the central laboratory of the University Hospital Schleswig-Holstein in Kiel (Germany). […] Blood pressure was measured on Mondays and Thursdays (Table 7).

intestinal microbiota = assay: FIM study: microbiota analyses of stool samples (16S rRNA V3-V4 sequencing); format: in vivo, human; settings: for abundance-based (Bray curtis) bacterial communities distance compared with a healthy normal reference group: baseline vs end of FIM study
From the text: For microbiota analyses, stool samples were collected on the first Monday of the study (day 0, baseline sample) and subsequently once weekly on Thursdays (Table 7). Total genomic DNA was extracted from feces collected longitudinally from each subject using MoBio Powersoil DNA Isolation kit (Dianova GmbH, Hamburg, Germany) according to the manufacturer's instructions. Aliquots of extracted DNA were used to amplify the V3-V4 variable region of 16S rRNA using composite primers (319F and 806R), as described by Fadrosh et al. (Microbiome 2:6, 2014). Amplification was performed by Phusion® hot start flex 2X master mix (New England Biolabs, Frankfurt/M., Germany) in a GeneAmp PCR system 9700 (Life Technologies/Applied Biosystems, Darmstadt, Germany) using the following cycling conditions: an initial denaturation of 3 min at 98° C. followed by 30 cycles of denaturation at 98° C. for 10 s, annealing at 55° C. for 30 s and elongation at 72° C. for 30 s, and a final extension step at 72° C. for 10 min. PCR performance was assessed by agarose gel electrophoresis for quality (expected amplicon size) and quantity (band intensity). Quantitative normalization was performed using the SequalPrep kit (Life/Technologies/Invitrogen, Darmstadt, Germany) to pool equal amounts of amplicons per sample. Sequencing was performed by Illumina MiSeq (2×250 sequencing kit; Illumina, San Diego, Calif., USA), which allowed to generate paired end reads with entire overlapping in contigs generation. Sequencing reads were primarily processed for quality control using the software mothur (Schloss et al. 2009, Appl. Environ. Microbiol. 75:7537). Forward and reverse reads (fastq) were assembled to contig sequences and discarded if they had more than 475 bases, any ambiguous base or more than 8 homopolymers. Sequences were aligned against the mothur-curated silva alignment database and screened to have alignment in the amplified specified V3-V4 region only. Chimeric sequences were detected with the Uchime algorithm (Edgar et al. 2011, Bioinformatics 27:2194) and were also removed. […]

[2] = First-in-man (FIM) dose escalation study: NA and NAM serum levels by LC-MS/MS; format: in vivo, human
Method: as §1
In this dose escalation study, subjects ingested the test items in the morning from Monday to Thursday of every week, followed by a three-day washout period from Friday to Sunday (Table 7). Before and until 30 min after administration (or until after the second blood sampling on Mondays), subjects fasted with water only. During week 1, the subjects took one daily dose of 30 mg unformulated NA or 900 mg unformulated NAM, respectively, to measure the maximum systemic exposure and peak serum levels according to nutritional tolerable upper intake levels or levels without anticipated side effects (Table 8). From week 2 until week 6, NA microcapsules or NAM microcapsules packaged in gelatin capsules (see Example 1) were administered with weekly dose increases (Tables 7 and 8).
Blood samples were collected on Mondays and Thursdays (Table 7). On Mondays, the first blood sample was collected before ingestion of the capsules (“0 h” samples), and a second blood sample was taken after 2 hours (“2 h”), while subjects were still fasting. […] In addition, NA and NAM levels were measured in all blood samples by LC-MS/MS in an external specialised laboratory to determine exposure (see Example 1).

[3] = Pilot pharmacokinetic (PK) study with NAM microcapsules: NA and NAM serum levels; format: in vivo, human
Method: The study was a self-experiment by medical investigators performed at the Department of Internal Medicine 1 of the University Hospital Schleswig-Holstein, Campus Kiel (Kiel, Germany).
In this study, subjects ingested either 900 mg of unformulated NAM (first week) or 900 mg of microencapsulated NAM packaged in gelatin capsules (second week). […] One such “low niacin meal” consisted of 150 g of apple, 150 g of red pepper and 100 g of cucumber. One niacin equivalent is defined as 1 mg of NA(M) or 60 mg of tryptophan.
Height and body weight were recorded before ingestion of the test item.

[4] = pH properties of shellac and NAM (dissolution pH, pH value); format: physicochemical
clinical = settings: both, human, in vivo, 900 mg, mean
Method: The study consisted of four study days, each separated by one week of washout and regeneration. On the calibration day of the study, the subjects ingested 30 mg of unformulated NA (NA group) or 900 mg of unformulated NAM (NAM group) as in the FIM study (see Example 2). Different doses of microencapsulated NA or NAM packaged in gelatin capsules were administered on the other three study days: 30 mg NA or 900 mg NAM, 150 mg NA or 1500 mg NAM, and 300 mg NA or 3000 mg NAM.
After 12 h of fasting overnight (with water only), a fasted blood sample was collected. After ingestion of NA, NAM or the respective capsules, blood samples were collected every hour until 8 hours after ingestion as well as after 10 and 12 hours. During the collection of blood samples, subjects remained fasted (with water ad libitum) except for two light meals with minimal vitamin B3 content after the blood samplings of hour 3 and hour 8. One such “low niacin meal” consisted of three rice wafers, one apple and one carrot with a total of 2.3 mg of niacin equivalents.
Statistical analyses were carried out using SPSS version 22.0 (SPSS, Chicago, Ill., USA), and graphic data analysis was performed with GraphPad Prism version 5.0 (GraphPad Software, San Diego, Calif., USA). […]

Row | Compound | Blood pressure, systolic [1] | Glucose [1] | abundance-based (Bray curtis) bacterial communities distance compared with a healthy normal reference group (intestinal microbiota) | Bacteroidetes (read counts) (intestinal microbiota; before, during and at the end of the FIM study) | accumulation (serum levels at 72 hours vs baseline levels) [2] | NAM serum levels ([3]; 900 mg free or enc. NAM, hour 1, subjects 1-3) | NAM serum levels ([3]; 900 mg free or enc. NAM, hour 2, subjects 1-3) | NAM serum levels ([3]; 900 mg free or enc. NAM, hour 3, subjects 1-3) | NAM serum levels ([3]; 900 mg free or enc. NAM, hour 4, subjects 1-3) | time of peak of NAM serum levels after ingestion ([3]; 900 mg, three healthy volunteers) | concentration at 1 h ([3]; human, serum, oral, 900 mg, 900 mg free or enc. NAM, hour 1, subjects 1-3) | concentration at 2 h ([3]; human, serum, oral, 900 mg, 900 mg free or enc. NAM, hour 2, subjects 1-3) | concentration at 3 h ([3]; human, serum, oral, 900 mg, 900 mg free or enc. NAM, hour 3, subjects 1-3) | concentration at 4 h ([3]; human, serum, oral, 900 mg, 900 mg free or enc. NAM, hour 4, subjects 1-3) | pH value [4] | AUC (clinical)
1 | O=C(O)c1cccnc1 [free NA, nicotinic acid] | 120 mm Hg and 130 mm Hg (2×) and 115 mm Hg and 105 mm Hg | 77 mg/dL and 92 mg/dL and 89 mg/dL and 85 mg/dL and 94 mg/dL | significant change | moderate, but overall significant increase | No NA or NAM accumulation was observed | – | – | – | – | – | – | – | – | – | – | –
2 | NC(=O)c1cccnc1 [free NAM, nicotinamide] | 120 mm Hg (4×) and 105 mm Hg | 87 mg/dL and 80 mg/dL and 92 mg/dL and 84 mg/dL and 83 mg/dL | trend | – | No NA or NAM accumulation was observed | 19,900 μg/L and 20,100 μg/L | 15,900 μg/L and 17,200 μg/L | 9,740 μg/L and 13,100 μg/L | 7,390 μg/L and 10,300 μg/L | 1 h | 11600 ng/mL | 10300 ng/mL | 8380 ng/mL | 5920 ng/mL | 6.61 | 78300 ng·h/mL

Source: patent publication US20210275513A1, “SHELLAC MICROCAPSULE FORMULATIONS AND COMPOSITIONS FOR TOPICAL INTESTINAL DELIVERY OF VITAMIN B3” (CONARIS RESEARCH INSTITUTE AG, priority 2016, published 2021)
